For seven molecules, IC50 and solubility results are on record in patent US11613527B2, “Enzyme inhibitors” (KalVista Pharmaceuticals Limited, priority 2019, dated 2023).

Data set [1] addresses Human plasma kallikrein (Homo sapiens (Human), UniProt P03952). Put plainly: Determination of the IC50 for plasma kallikrein (fluorogenic substrate H-DPro-Phe-Arg-AFC). Format: biochemical. The settings on record: class symbols A-D, read-out: IC50 (human PKal). The method in brief: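 Enzyme from a commercial source was incubated at 25° C. with H-DPro-Phe-Arg-AFC substrate and a range of test compound concentrations. Residual activity was taken as the initial reaction rate, followed by absorbance change at 410 nm, and IC50 values were derived from it.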

Data set [2] deals with Human KLK1 (Homo sapiens (Human), UniProt P06870). Put plainly: Determination of the IC50 for KLK1 (fluorogenic substrate H-DVal-Leu-Arg-AFC). Type of data set: biochemical. The method in brief: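 Human KLK1 incubated at 25° C. with fluorogenic substrate H-DVal-Leu-Arg-AFC and a range of test compound concentrations. Residual activity taken as initial reaction rate from absorbance change at 410 nm; IC50 derived from these rates.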

The target of data set [3] is Human FXIa (Homo sapiens (Human), UniProt P03951). Put plainly: Determination of the % inhibition for FXIa (fluorogenic substrate Z-Gly-Pro-Arg-AFC; 40 μM or IC50). Format: biochemical. The method in brief:
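Human FXIa incubated at 25 °C with fluorogenic substrate Z-Gly-Pro-Arg-AFC and test compound at 40 μM for % inhibition, or a concentration series for IC50. Residual activity taken as initial rate from absorbance change at 410 nm.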

A short description of data set [4]: Solubility after 24 hrs in Fasted State Simulated Intestinal Fluid (FaSSIF). Type of data set: physicochemical. The settings on record: Fasted State Simulated Intestinal Fluid (FaSSIF), thermodynamic from solid, 24 hrs at 37° C., nominal concentration 1 mg/mL (as free base). As for the experimental part: Selected compounds were further screened for solubility in Fasted State Simulated Intestinal Fluid (FaSSIF).
Approximately 1 mg of test compound is accurately weighed into a 2 mL vial. Volumes of the FaSSIF solution (pre-heated to 37° C.) were added to a vial to give a nominal concentration of 1 mg/mL (as free base). The FaSSIF solution was prepared on the day of use. The samples were vortexed before being placed in a Titramax 1000 shaker for 24 hrs at 37° C. and approximately 500 rpm. The samples were transferred to eppendorf tubes and centrifuged at 15,000 g (r.c.f.) for 10 min at 37° C. and analysed for concentration of test compound by LCMS.

Values after ≈ are worked out from the molar mass of the structure shown.

Sequence of Human FXIa (P03951 388-625): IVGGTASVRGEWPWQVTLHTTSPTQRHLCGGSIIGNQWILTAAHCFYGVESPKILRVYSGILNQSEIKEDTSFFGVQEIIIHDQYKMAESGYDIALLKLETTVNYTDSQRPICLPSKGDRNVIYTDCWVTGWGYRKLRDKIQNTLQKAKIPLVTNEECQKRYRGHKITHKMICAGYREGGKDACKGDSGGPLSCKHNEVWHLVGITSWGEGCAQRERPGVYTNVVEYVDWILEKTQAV
Sequence of Human FXIa (P03951 19-387 partner): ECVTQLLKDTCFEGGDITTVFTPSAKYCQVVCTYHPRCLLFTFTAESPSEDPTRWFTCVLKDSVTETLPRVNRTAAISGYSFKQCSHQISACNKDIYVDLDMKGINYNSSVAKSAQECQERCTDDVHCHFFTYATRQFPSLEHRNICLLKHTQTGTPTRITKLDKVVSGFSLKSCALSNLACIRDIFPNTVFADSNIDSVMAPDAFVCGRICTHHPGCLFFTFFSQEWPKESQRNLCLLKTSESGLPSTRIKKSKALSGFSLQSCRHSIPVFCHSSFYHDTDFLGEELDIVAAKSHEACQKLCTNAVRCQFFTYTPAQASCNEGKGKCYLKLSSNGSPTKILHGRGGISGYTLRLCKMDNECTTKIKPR
Sequence of Human plasma kallikrein (P03952 391-638): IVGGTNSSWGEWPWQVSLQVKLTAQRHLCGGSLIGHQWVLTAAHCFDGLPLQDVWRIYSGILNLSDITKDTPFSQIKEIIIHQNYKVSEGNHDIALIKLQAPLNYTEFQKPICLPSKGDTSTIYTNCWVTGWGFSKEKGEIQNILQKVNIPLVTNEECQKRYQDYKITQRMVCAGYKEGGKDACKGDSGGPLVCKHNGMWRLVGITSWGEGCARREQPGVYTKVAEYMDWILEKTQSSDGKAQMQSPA
Sequence of Human plasma kallikrein (P03952 20-390 partner): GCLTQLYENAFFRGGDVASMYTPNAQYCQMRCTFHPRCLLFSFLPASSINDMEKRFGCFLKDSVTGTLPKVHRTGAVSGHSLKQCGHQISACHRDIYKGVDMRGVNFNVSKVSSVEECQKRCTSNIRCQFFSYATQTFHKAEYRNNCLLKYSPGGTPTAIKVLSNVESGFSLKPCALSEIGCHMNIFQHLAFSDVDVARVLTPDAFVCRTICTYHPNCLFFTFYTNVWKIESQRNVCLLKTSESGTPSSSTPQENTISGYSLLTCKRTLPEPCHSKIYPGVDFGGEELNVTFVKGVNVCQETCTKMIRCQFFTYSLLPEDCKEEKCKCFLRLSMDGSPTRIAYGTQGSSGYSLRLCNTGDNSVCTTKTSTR
Sequence of Human KLK1 (P06870 25-262): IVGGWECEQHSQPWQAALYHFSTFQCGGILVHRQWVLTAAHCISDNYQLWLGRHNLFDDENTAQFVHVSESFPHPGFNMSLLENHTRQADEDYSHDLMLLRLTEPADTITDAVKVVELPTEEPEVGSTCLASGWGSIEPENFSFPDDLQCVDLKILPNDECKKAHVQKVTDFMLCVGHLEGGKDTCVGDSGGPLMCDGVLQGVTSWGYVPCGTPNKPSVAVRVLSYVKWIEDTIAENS

As usually defined, the IC50 is the concentration needed to halve the response being measured. A word on the solubility: it is the dissolved amount per volume that the medium holds. High values mean much dissolved substance, low ones little dissolved substance. As to `CCN1CCc2ccc(Cn3cc(C(=O)NCc4c(-n5cnc(C(F)F)n5)ccc(OC)c4F)c(COC)n3)cc2C1` [Example 26, N-({6-[3-(difluoromethyl)-1,2,4-triazol-1-yl]-2-fluoro-3-methoxyphenyl}methyl)-1-[(2-ethyl-3,4-dihydro-1H-isoquinolin-7-yl)methyl]-3-(methoxymethyl)pyrazole-4-carboxamide], the 50% inhibitory concentration (IC50) in data set [1] is under 0.01 µM; in data set [2] it was over 40 µM; in data set [3] it was over 40 µM. Further, the solubility at 24 h in data set [4] was over 1000 µg/mL.
With `CCN1CCc2ccc(Cn3cc(C(=O)NCc4c(-n5ccc(C#N)n5)ccc(OC)c4F)c(COC)n3)cc2C1` [Example 27, N-{[6-(3-cyanopyrazol-1-yl)-2-fluoro-3-methoxyphenyl]methyl}-1-[(2-ethyl-3,4-dihydro-1H-isoquinolin-7-yl)methyl]-3-(methoxymethyl)pyrazole-4-carboxamide], the IC50 in data set [1] is under 0.01 µM; in data set [2], over 40 µM; in data set [3], 33.9 µM. The molecule also showed a solubility at 24 h in data set [4] of 960 µg/mL (≈ 1720 µM).
In the case of `COCc1nn(Cc2ccc3c(c2)CN(C(C)C)CC3)cc1C(=O)NCc1c(-n2cc(C#N)cn2)ccc(OC)c1F` [Example 30, N-{[6-(4-cyanopyrazol-1-yl)-2-fluoro-3-methoxyphenyl]methyl}-1-[(2-isopropyl-3,4-dihydro-1H-isoquinolin-7-yl)methyl]-3-(methoxymethyl)pyrazole-4-carboxamide], the results for the concentration for half-maximal inhibition (IC50) in data set [1], in data set [2] and in data set [3] were under 0.01 µM, over 40 µM and 39.6 µM, respectively. The amount in solution in data set [4] (solubility at 24 h) came to 920 µg/mL (≈ 1610 µM).
In the same order, the values of `COCc1nn(Cc2ccc3c(c2)CCN(C)C3)cc1C(=O)NCc1c(-n2cc(C(F)F)nn2)ccc(OC)c1F` [Example 34, N-({6-[4-(difluoromethyl)-1,2,3-triazol-1-yl]-2-fluoro-3-methoxyphenyl}methyl)-3-(methoxymethyl)-1-[(2-methyl-3,4-dihydro-1H-isoquinolin-6-yl)methyl]pyrazole-4-carboxamide] are under 0.01 µM, over 40 µM, over 40 µM and over 1000 µg/mL.
In the same order, the values of `COCc1nn(Cc2ccc3c(c2)CCN(C2CC2)C3)cc1C(=O)NCc1c(-n2cc(C)nn2)ccc(OC)c1F` [Example 35, 1-[(2-cyclopropyl-3,4-dihydro-1H-isoquinolin-6-yl)methyl]-N-{[2-fluoro-3-methoxy-6-(4-methyl-1,2,3-triazol-1-yl)phenyl]methyl}-3-(methoxymethyl)pyrazole-4-carboxamide] are 0.03 to 0.1 µM, over 40 µM, over 40 µM and 510 µg/mL (≈ 911 µM).
In the same order, the values of `COCc1nn(Cc2ccc3c(c2)CCN(C)C3)cc1C(=O)NCc1c(-n2cc(C)nn2)ccc(OC)c1F` [Example 36, N-{[2-fluoro-3-methoxy-6-(4-methyl-1,2,3-triazol-1-yl)phenyl]methyl}-3-(methoxymethyl)-1-[(2-methyl-3,4-dihydro-1H-isoquinolin-6-yl)methyl]pyrazole-4-carboxamide] are under 0.01 µM, over 4 µM, over 4 µM and 880 µg/mL (≈ 1650 µM).
In the case of `COCc1nn(Cc2ccc3c(c2)CCN(C2CCC2)C3)cc1C(=O)NCc1c(-n2cc(C)nn2)ccc(OC)c1F` [Example 40, 1-[(2-cyclobutyl-3,4-dihydro-1H-isoquinolin-6-yl)methyl]-N-{[2-fluoro-3-methoxy-6-(4-methyl-1,2,3-triazol-1-yl)phenyl]methyl}-3-(methoxymethyl)pyrazole-4-carboxamide], the concentration for half-maximal inhibition (IC50) in data set [1] was 0.01 to 0.03 µM; in data set [2], over 40 µM; in data set [3] it was over 40 µM. This molecule came in with a solubility at 24 h in data set [4] of over 1000 µg/mL.
